Ends that are not written are not given here.
Tests used:
recombinant Prep = assay: recombinant Prep; settings: mouse, 25°C, up to 60 minutes
Prep [1] = target: T1, Prep (Mus musculus, UniProt Q9QUR6); assay: label-free LC-MS peptidomics of CNS tissues, S17092 versus vehicle treated mice; assay type: in vivo; settings: S17092 30 mg/kg i.p.
Prep [2] = assay: CNS tissue; settings: WT mice (C57BL/6), up to 4 hours
Prep [3] = target: T1, Prep; assay: Prep inhibition with CGRP; assay type: biochemical

T1 sequence (Q9QUR6 whole entry): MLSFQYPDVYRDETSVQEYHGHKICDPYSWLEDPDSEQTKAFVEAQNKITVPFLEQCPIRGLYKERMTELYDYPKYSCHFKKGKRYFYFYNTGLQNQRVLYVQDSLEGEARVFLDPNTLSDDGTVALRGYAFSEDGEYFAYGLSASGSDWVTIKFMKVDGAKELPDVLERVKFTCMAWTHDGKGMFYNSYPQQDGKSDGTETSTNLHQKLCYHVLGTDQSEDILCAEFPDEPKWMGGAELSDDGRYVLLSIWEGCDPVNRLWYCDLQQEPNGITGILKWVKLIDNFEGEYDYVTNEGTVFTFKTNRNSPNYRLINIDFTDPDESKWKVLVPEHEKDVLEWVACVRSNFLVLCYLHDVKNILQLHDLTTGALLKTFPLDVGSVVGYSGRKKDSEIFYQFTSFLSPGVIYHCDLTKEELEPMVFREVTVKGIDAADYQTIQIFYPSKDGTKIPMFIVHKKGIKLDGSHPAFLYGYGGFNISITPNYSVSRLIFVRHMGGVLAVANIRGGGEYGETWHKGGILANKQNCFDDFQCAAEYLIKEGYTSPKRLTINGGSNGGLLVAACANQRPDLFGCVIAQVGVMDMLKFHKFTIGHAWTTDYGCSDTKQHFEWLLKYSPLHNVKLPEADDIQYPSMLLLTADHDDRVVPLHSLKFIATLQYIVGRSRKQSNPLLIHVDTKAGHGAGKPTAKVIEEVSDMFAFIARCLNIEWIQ

Compound: GGVVKDNFVPTNVGSEAF-NH2
- fragment found (recombinant Prep): CGRP(30–37)

Compound: GGVVKDNFVPTNVGSEAF-NH2 [CGRP(20–37)]
- Levels of Prep substrates in the spinal cord 1 hour and 4 hours after i.p. S17092 administration (Prep [1]): significantly elevated at 1 hour (gray bar) and 4 hours

Compound: MDELYPMEPEEEANGGEILA
- fragment found (Prep [2]): Penk(123–133)

Compound: APPEPVPPPRAAPAPTHV
- fragment found (Prep [2]): Vgf(490–502)

Compound: CC(C)C[C@H](NC(=O)CNC(=O)[C@H](C)NC(=O)[C@H](CC(C)C)NC(=O)[C@H](CCCNC(=N)N)NC(=O)[C@H](Cc1c[nH]cn1)NC(=O)[C@@H](NC(=O)[C@@H](NC(=O)[C@@H]1CSSC[C@H](NC(=O)[C@@H](N)CO)C(=O)N[C@@H](CC(N)=O)C(=O)N[C@@H]([C@@H](C)O)C(=O)N[C@@H](C)C(=O)N[C@@H]([C@@H](C)O)C(=O)N1)C(C)C)[C@@H](C)O)C(=O)N[C@@H](CC(C)C)C(=O)N[C@@H](CO)C(=O)N[C@@H](CCCNC(=N)N)C(=O)N[C@@H](CO)C(=O)NCC(=O)NCC(=O)N[C@H](C(=O)N[C@H](C(=O)N[C@@H](CCCCN)C(=O)N[C@@H](CC(=O)O)C(=O)N[C@@H](CC(N)=O)C(=O)N[C@@H](Cc1ccccc1)C(=O)N[C@H](C(=O)N1CCC[C@H]1C(=O)N[C@H](C(=O)N[C@@H](CC(N)=O)C(=O)N[C@H](C(=O)NCC(=O)N[C@@H](CO)C(=O)N[C@@H](CCC(=O)O)C(=O)N[C@@H](C)C(=O)N[C@@H](Cc1ccccc1)C(N)=O)C(C)C)[C@@H](C)O)C(C)C)C(C)C)C(C)C [CGRP(1–37), calcitonin gene-related peptide]
- IC50 (Prep [3]): 2 µM

— article PMC2813186 (Biochemistry, 2009)
